Experimental data taken from patent US20230000843A1, “MEDICINAL COGNITIVE TREATMENTS” (ACTINOGEN MEDICAL LIMITED, priority 2019, published 2023).

How the values were obtained:
[1] = system: healthy elderly subjects; test: One Card Learning test (visual recognition learning); assay type: in vivo, human
Procedure: (§1) The test was aimed at assessing if, and to what extent, Xanamem™ 20 mg a day may improve performance in healthy elderly subjects from Baseline (Week 0) to Weeks 2, 4, 6, 8, 10, 12 (End of Treatment) and 16 (Follow-up), as measured by changes in the Cogstate Test Battery. 42 subjects were randomised in which 30 subjects received 20 mg Xanamem™ once a day and 12 subjects received matching placebo once a day.
(§2) For each visit, excluding the Screening visit and safety visits (Week 6 and Week 10), subjects arrived at the study site having fasted for at least 10 hours. The subjects took Xanamem™ at site after all the pre-dose blood samples had been taken. Xanamem™ was taken 30 minutes after the start of a meal. On non-study visit days, the subjects took Xanamem™ at the same time each morning with food (30 minutes after the start of the meal).
(§3) One capsule of Xanamem™, or the matching placebo, was administered orally with approximately 200 mL of warm water once a day and with food in the morning, to the subjects from Baseline (Week 0) to End of Treatment (Week 12) for a total of 12 weeks.
To assess the efficacy of Xanamem™ 20 mg once a day in improving cognitive ability in the subjects, the Cogstate Test Battery of the subjects were checked at Baseline (Week 0), Weeks 2, 4, and 8, Week 12 (End of Treatment) and Week 16 (Follow-up). […]

[2] = system: healthy elderly subjects; test: Cogstate Test Battery overall: impairment of cognition; assay type: in vivo, human; conditions: 20 mg compared to placebo over 12 weeks
Procedure: as §1
(§4) To assess the efficacy of Xanamem™ 20 mg once a day in improving cognitive ability in the subjects, the Cogstate Test Battery of the subjects were checked at Baseline (Week 0), Weeks 2, 4, and 8, Week 12 (End of Treatment) and Week 16 (Follow-up).
The Cogstate Test Battery included the following tests: detection test, identification test, one card learning test, one back working memory test, and the continuous paired associate learning test (CPAL; paired associate learning).

[3] = system: healthy elderly subjects; test: Cogstate Detection test (simple reaction time, psychomotor function); assay type: in vivo, human
Procedure: as §1, §2
(§5) One capsule of Xanamem™, or the matching placebo, was administered orally with approximately 200 mL of warm water once a day and with food in the morning, to the subjects from Baseline (Week 0) to End of Treatment (Week 12) for a total of 12 weeks. […]
For this test, the subject pressed a “YES” response key as soon as they detected an event (a card turning face up presented in the centre of the computer screen). The software measured the response time to detect each event.

[4] = system: healthy elderly subjects; test: Continuous Paired Associate Learning-Delayed test; assay type: in vivo, human; conditions: 20 mg once a day orally, 12 weeks, compared to placebo group
Procedure: as §1, §2, §5
(§6) Finding the correct location for all patterns in the set was defined as a learning trial. […] The software recorded each move as an error or as a correct move.

[5] = CSF and corresponding plasma concentrations at the EOT visit; assay type: in vivo; conditions: human, oral, 20 mg, four CSF samples at the EOT visit, read-out: ratio of CSF to plasma concentrations
Procedure: The ratio of Xanamem™ CSF to plasma concentrations in the four CSF samples taken at the EOT visit ranged from 0.028 to 0.421; the range of CSF concentrations was 3.48 to 6.25 ng/mL, compared to 11.6 to 126 ng/mL for the corresponding plasma concentrations.

[6] = system: healthy elderly subjects; test: Continuous Paired Associate Learning test (CPAL); assay type: in vivo, human
Procedure: as §1, §2, §3, §4
The Continuous Paired Associate Learning test is a measure of visual associate memory and uses a well-validated paired associate learning paradigm in which the subject must learn the locations of a number of amoeba-like shapes on the computer screen.
Beneath all but two of the blue spheres were amoeboid shapes, one of which matched the central display; the two remaining circles were distractors. In the exposure phase of the test all of the to-be-remembered pattern-location associations were presented on the computer screen simultaneously.
After a five second delay, a pattern was shown in the central location and this signals that the subject should touch the location in the periphery that contained the same pattern. This process continued until the participant had acknowledged all of the pattern-location associations. The learning phase began with the same test display presented during the exposure phase except that now all of the peripheral locations were shown as blue spheres. One of the patterns presented in the exposure phase was presented in the centre location. With the presentation of this pattern, the subject was required to select the peripheral location where an identical pattern was hidden beneath the blue sphere. […]
as §6

[7] = Plasma concentrations and pharmacokinetics; assay type: in vivo, human
Procedure: as §1, §2, §3
The mean Xanamem™ plasma concentration at 3-5 hours after the first dose of the study was 169 ng/mL. […] The mean trough concentration at Weeks 2, 4, and 8, was 89, 73, and 78 ng/mL, and the mean 3 to 5 hour concentration was 353. 331, and 330 ng/mL for weeks 2, 4, and 8, respectively.
Only body weight was identified as a covariate impacting PK in this model, confirming that the PK of Xanamem™ are consistent between healthy volunteers, patients with Alzheimer's Disease, and healthy elderly subjects.

[8] = system: healthy elderly subjects; test: Cogstate One Back working memory test; assay type: in vivo, human
Procedure: as §1, §2, §5
The Cogstate One Back memory test is a valid measure of working memory. […] The software measured the speed and accuracy of each response.

[9] = system: healthy elderly subjects; test: Cogstate Identification test (choice reaction time, visual attention); assay type: in vivo, human
Procedure: as §1, §2, §5
In this test an event (a card turning face up) occurred in the centre of the computer screen and the subject decided “YES” or “NO” as to whether this event met a predefined and unchanging criterion (i.e. is the color of the card red?). The software measured the speed and accuracy of each response.

[10] = 20 mg once a day orally, 12 weeks, compared to placebo group
[11] = 12 weeks treatment, 20 mg versus placebo, statistically significant

What does the source list for O=C(c1csc(-c2cn[nH]c2)c1)N1[C@@H]2CC[C@H]1C[C@](O)(c1ncccn1)C2 [Xanamem™, (5-(1H-Pyrazol-4-yl)thiophen-3-yl)(3-hydroxy-3-(pyrimidin-2-yl)-8-azabicyclo[3.2.1]octan-8-yl)methanone]?
visual learning (accuracy of performance, arcsine transformation of proportion of correct responses) ([1]; 20 mg once a day orally, week 8, compared to placebo group): improved visual learning; effect size (ES) data for One Card Learning outcomes ([1]; 20 mg versus placebo, overall): tended to favour Xanamem™ 20 mg; impairment of cognition associated with treatment [2]: no systemic evidence of impairment in any respect of cognition; psychomotor function (speed of performance, log10 transformed reaction times for correct responses) [3, 10]: improved psychomotor function; effect on Detection test (psychomotor speed) ([3]; 20 mg versus placebo, by time point): evident at week 8; Hippocampal dependent learning and memory (number of errors remembering the associations after a delay) [4]: improved Hippocampal dependent learning and memory; Kp [5]: 0.028 to 0.421; Hippocampal dependent learning and memory (number of errors remembering the associations) [6, 10]: improved Hippocampal dependent learning and memory; differences on Continuous Paired Associates Learning Test outcomes ([6]; 20 mg versus placebo): statistically significant differences in data were in favour of Xanamem™ 20 mg; effect size difference on Continuous Paired Associates Learning Test, sensitivity analysis ([6]; 20 mg versus placebo, Week 4): favoured Xanamem™ 20 mg; effect size (ES) data for Continuous Paired Associates outcomes ([6]; 20 mg versus placebo, overall): tended to favour Xanamem™ 20 mg; mean 3 to 5 hour plasma concentration ([7]; Week 2, 20 mg once a day): 353 ng/mL; mean trough plasma concentration ([7]; Week 2, 20 mg once a day): 89 ng/mL; mean 3 to 5 hour plasma concentration ([7]; Week 4, 20 mg once a day): 331 ng/mL; mean trough plasma concentration ([7]; Week 4, 20 mg once a day): 73 ng/mL; mean 3 to 5 hour plasma concentration ([7]; Week 8, 20 mg once a day): 330 ng/mL; mean trough plasma concentration ([7]; Week 8, 20 mg once a day): 78 ng/mL; mean plasma concentration at 3-5 hours ([7]; after the first dose, 20 mg oral with food): 169 ng/mL; pharmacokinetic model ([7]; only body weight identified as covariate): one-compartment model with first-order absorption and elimination; steady state of plasma concentrations ([7]; trough and 3-5 hour concentrations consistent across Weeks 2, 4 and 8): steady state had been achieved by Week 2; working memory (speed of performance, log10 transformed reaction times for correct responses) [8, 10]: improved working memory; effect size, speed of performance on One-back test (working memory) [8, 11]: > 0.6; visual attention (speed of performance, log10 transformed reaction times for correct responses) [9, 10]: improved visual attention; effect size, speed of performance on Identification test (attention) [9, 11]: > 0.6
